We go through twelve compounds from PMC8485799, “Synthesis and Antiprotozoal Profile of 3,4,5‐Trisubstituted Isoxazoles” (ChemistryOpen, 2021).

Each structure is given as a SMILES string.

Data set [1] can be described thus: Cytotoxicity assay in mammalian cells (MTT), macrophages, 48 h. In kind it is cell-based. Particulars: mouse, J774 A1 macrophages, pH 7.2; 50 % inhibition of macrophages growth, 48 h, MTT. In a few lines: (§1)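 Cells pre-grown 24 h to confluence (L929 2.5×10^5, J774 A1 5×10^5 cells.mL^−1), then exposed to compound dilutions at 37 °C, 5 % CO2: L929 in DMEM/10 % FBS for 72 h, J774 A1 in RPMI‐1640/10 % FBS for 48 h. MTT (2 mg.mL^−1, 4 h), formazan read at […]; CC50 from viability versus untreated controls.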

Data set [2] is described as follows: Cytotoxicity assay in mammalian cells (MTT), fibroblasts, 72 h. It is filed as cell-based. Particulars: mouse, L929 fibroblast cells, pH 7.2; 50 % inhibition of fibroblast growth, 72 h, MTT. The method, boiled down:
as §1

For data set [3], the system named is promastigote forms of Leishmania amazonensis (WHOM/BR/75/JOSEFA strain). The experiment in a line: Antiproliferative assay (XTT), promastigote forms, 72 h. It is filed as cell-based. The note with it: for IC50: Leishmania amazonensis, promastigote form, 72 h, XTT, read-out: L. amazonensis IC50; for SIL-F, selectivity index (Fibroblast CC50/L. amazonensis IC50): fibroblast vs promastigote; for SIL-M, selectivity index (Macrophages CC50/L. amazonensis IC50): macrophages vs promastigote. The method, boiled down: (§2)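 Parasites at 1×10^6 mL^−1 with compound (DMSO stock diluted in medium): L. amazonensis promastigotes in Warren medium + 10% FBS at 25 °C for 72 h, T. cruzi epimastigotes in LIT medium + 10% FBS at 28 °C for 96 h. Viability by XTT/PMS for 4 h, absorbance at 450 nm. IC50 from % viable versus control.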

The subject of data set [4] is epimastigote forms of Trypanosoma cruzi (Y strain). Nature of the data set: Antiproliferative assay (XTT), epimastigote forms, 96 h. It is filed as cell-based. The note with it: for IC50: Trypanosoma cruzi, epimastigote form, 96 h, XTT, read-out: T. cruzi IC50; for SIT-F, selectivity index (Fibroblast CC50/T. cruzi IC50): fibroblast vs epimastigote; for SIT-M, selectivity index (Macrophages CC50/T. cruzi IC50): macrophages vs epimastigote. The method, boiled down: as §2

`O=C(N/N=C/c1ccccc1)c1noc(-c2ccc(Cl)cc2)c1CNc1ccccc1` [4 da] came in with a melting point of 189.3 to 191.8 °C. Also, in data set [1], it took 236 ± 9.6 µM to reach half-maximal cytotoxicity (CC50 at 48 h). For the same compound, the CC50 at 72 h in data set [2] worked out at 266 ± 5.9 µM. Also, in data set [3], the IC50 was 48.6 ± 2.8 µM; the “SIL-F, selectivity index (Fibroblast CC50/L. amazonensis IC50)” value (“SIL-F, selectivity index” below) was 5.46; the “SIL-M, selectivity index (Macrophages CC50/L. amazonensis IC50)” value (“SIL-M, selectivity index” for short) came to 4.85. Besides, in data set [4], the half-inhibitory concentration (IC50) stood at 49.7 ± 2.2 µM; the “SIT-F, selectivity index (Fibroblast CC50/T. cruzi IC50)” value (shortened to “SIT-F, selectivity index”) was found to be 5.34; the “SIT-M, selectivity index (Macrophages CC50/T. cruzi IC50)” value (“SIT-M, selectivity index” for short) amounted to 4.74.

Regarding `O=C(N/N=C/c1ccccc1)c1noc(-c2ccc(Cl)cc2)c1CNc1ccc(Cl)cc1` [4 db], the melting point lay within 167.5 to 169.3 °C. This compound also had a CC50 at 48 h in data set [1] of 395 ± 9.9 µM. Moreover, in data set [2], the cytotoxic concentration (CC50) at 72 h was determined as 404.7 ± 4 µM. In data set [3], the half-maximal inhibitory concentration (IC50) came out at 67.4 ± 3.9 µM; the “SIL-F, selectivity index” value is recorded as 6.00; the “SIL-M, selectivity index” value came out at 5.86. Also, in data set [4], the IC50 is 71 ± 4.7 µM; the “SIT-F, selectivity index” value was 5.70; the “SIT-M, selectivity index” value was determined as 5.56.

`COc1ccc(NCc2c(C(=O)N/N=C/c3ccccc3)noc2-c2ccc(Cl)cc2)cc1` [4 dc]: the melting point lay in the range of 176.3 to 177.1 °C. Also, the half-maximal cytotoxic concentration (CC50) at 48 h in data set [1] turned out to be 245 ± 7.9 µM. Besides, half-maximal cytotoxicity in data set [2] (CC50 at 72 h) was put at 296 ± 9 µM. For the same compound, in data set [3], the IC50 was determined as 54.3 ± 2.7 µM; the “SIL-F, selectivity index” value is listed as 5.45; the “SIL-M, selectivity index” value turned out to be 4.50. For the same compound, in data set [4], the concentration for half-maximal inhibition (IC50) was determined as 65.9 ± 6.1 µM; the “SIT-F, selectivity index” value amounted to 4.49; the “SIT-M, selectivity index” value is 3.71.

For `O=C(N/N=C/c1ccccn1)c1noc(-c2ccc([N+](=O)[O-])cc2)c1CNc1ccccc1` [5 aa, 3‐[(2E)‐N'‐(2‐pyridinylmethylene)hydrazinecarbonyl]‐4‐(phenyl)aminomethyl‐5‐(4‐nitrophenyl)isoxazole], the melting point was in the range of 223.8 to 225.5 °C. The CC50 at 48 h in data set [1] is 388 ± 7.9 µM. In data set [2], this compound displayed a half-maximal cytotoxic concentration (CC50) at 72 h of 407.3 ± 3.9 µM. Besides, in data set [3], the IC50 worked out at 126 ± 2.1 µM; the “SIL-F, selectivity index” value is reported as 3.24; the “SIL-M, selectivity index” value is listed as 3.09. Besides, in data set [4], the IC50 is 123 ± 10.9 µM; the “SIT-F, selectivity index” value came to 3.31; the “SIT-M, selectivity index” value amounted to 3.16.

In turn, `O=C(N/N=C/c1ccccn1)c1noc(-c2ccccc2)c1CNc1ccccc1` [5 ba] yielded a melting point of 194.8 to 195.6 °C. The compound also registered a half-maximal cytotoxic concentration (CC50) at 48 h in data set [1] of 303 ± 9.5 µM. Further, in data set [2], the half-maximal cytotoxic concentration (CC50) at 72 h came to 330 ± 5.6 µM. Besides, in data set [3], the half-inhibitory concentration (IC50) was 35.8 ± 4.8 µM; the “SIL-F, selectivity index” value was 9.20; the “SIL-M, selectivity index” value came out at 8.47. Further, in data set [4], the IC50 was 33.6 ± 4.4 µM; the “SIT-F, selectivity index” value worked out at 9.80; the “SIT-M, selectivity index” value is on record as 9.02.

The compound `O=C(N/N=C/c1ccccn1)c1noc(-c2ccccc2)c1CNc1ccc(Cl)cc1` [5 bb] came in with a melting point of 209.3 to 211.7 °C. The same compound showed a CC50 at 48 h in data set [1] of 301 ± 5.9 µM. This compound showed a CC50 at 72 h in data set [2] of 338 ± 8.6 µM. Further, in data set [3], the IC50 stood at 27.8 ± 4.1 µM; the “SIL-F, selectivity index” value was 12.38; the “SIL-M, selectivity index” value is on record as 11.01. In data set [4], the 50% inhibitory concentration (IC50) turned out to be 26.9 ± 0.9 µM; the “SIT-F, selectivity index” value is 12.57; the “SIT-M, selectivity index” value is 11.18.

In turn, `O=C(N/N=C/c1ccccn1)c1noc(-c2ccc(F)cc2)c1CNc1ccccc1` [5 ca] showed a melting point of 157.7 to 159.6 °C. The compound further registered a CC50 at 48 h in data set [1] of 374 ± 5.8 µM. Besides, in data set [2], the CC50 at 72 h amounted to 403 ± 8.6 µM. Further, in data set [3], the IC50 was determined as 74.8 ± 2.9 µM; the “SIL-F, selectivity index” value turned out to be 5.38; the “SIL-M, selectivity index” value is listed as 5.01. Moreover, in data set [4], the 50% inhibitory concentration (IC50) came to 69.5 ± 3.7 µM; the “SIT-F, selectivity index” value turned out to be 5.79; the “SIT-M, selectivity index” value is reported as 5.38.

In turn, `O=C(N/N=C/c1ccccn1)c1noc(-c2ccc(F)cc2)c1CNc1ccc(Cl)cc1` [5 cb] gave a melting point of 202.4 to 203.9 °C. Moreover, in data set [1], the midpoint of cytotoxicity, the CC50 at 48 h, lay at 112 ± 6.8 µM. The half-maximal cytotoxic concentration (CC50) at 72 h in data set [2] came out at 154 ± 7.8 µM. For the same compound, in data set [3], the 50% inhibitory concentration (IC50) was 22.6 ± 5 µM; the “SIL-F, selectivity index” value turned out to be 6.81; the “SIL-M, selectivity index” value came out at 4.96. Moreover, in data set [4], the half-inhibitory concentration (IC50) is 39.4 ± 3.1 µM; the “SIT-F, selectivity index” value is 3.91; the “SIT-M, selectivity index” value came out at 2.84.

As to `O=C(N/N=C/c1ccccn1)c1noc(-c2ccc(Cl)cc2)c1CNc1ccccc1` [5 da], the melting point lay within 180.5 to 182.9 °C. In data set [1], it took 289 ± 9.5 µM to reach half-maximal cytotoxicity (CC50 at 48 h). In addition, the midpoint of cytotoxicity in data set [2], the CC50 at 72 h, lay at 298 ± 5.7 µM. In data set [3], the concentration for half-maximal inhibition (IC50) was 69 ± 8.7 µM; the “SIL-F, selectivity index” value is 4.32; the “SIL-M, selectivity index” value amounted to 4.19. Also, in data set [4], the IC50 was determined as 72.6 ± 3.8 µM; the “SIT-F, selectivity index” value is 4.10; the “SIT-M, selectivity index” value came to 3.98.

Compound `O=C(N/N=C/c1ccccn1)c1noc(-c2ccc(Cl)cc2)c1CNc1ccc(Cl)cc1` [5 db] registered a melting point of 175.7 to 176.4 °C. Also, the midpoint of cytotoxicity in data set [1], the CC50 at 48 h, lay at 198 ± 4.6 µM. The half-maximal cytotoxic concentration (CC50) at 72 h in data set [2] worked out at 203 ± 3.1 µM. In data set [3], the half-inhibitory concentration (IC50) was 87.9 ± 2 µM; the “SIL-F, selectivity index” value was 2.30; the “SIL-M, selectivity index” value is recorded as 2.26. In addition, in data set [4], the IC50 was 97.3 ± 3.6 µM; the “SIT-F, selectivity index” value is on record as 2.08; the “SIT-M, selectivity index” value worked out at 2.04.

`COc1ccc(NCc2c(C(=O)N/N=C/c3ccccn3)noc2-c2ccc(Cl)cc2)cc1` [5 dc] showed a melting point of 210.4 to 212.4 °C. This compound yielded a 50% cytotoxic concentration (CC50) at 48 h in data set [1] of 98.6 ± 2.3 µM. Also, the midpoint of cytotoxicity in data set [2], the CC50 at 72 h, lay at 107 ± 2.2 µM. Moreover, in data set [3], the IC50 came to 17.4 ± 2 µM; the “SIL-F, selectivity index” value is 6.17; the “SIL-M, selectivity index” value was 5.67. For the same compound, in data set [4], the 50% inhibitory concentration (IC50) is 17.9 ± 0.7 µM; the “SIT-F, selectivity index” value is 6.00; the “SIT-M, selectivity index” value amounted to 5.51.

On to `O=C(N/N=C/c1ccc(-c2cccs2)s1)c1noc(-c2ccc([N+](=O)[O-])cc2)c1CNc1ccccc1` [6 aa, 3‐[(2E)‐N'‐(2,2'‐bithienyl‐5‐methylene)hydrazinecarbonyl]‐4‐(phenyl)aminomethyl‐5‐(4‐nitrophenyl)isoxazole], for which the melting point lay in the range of 232.5 to 233.9 °C. This compound displayed a 50% cytotoxic concentration (CC50) at 48 h in data set [1] of 210 ± 9.6 µM. This compound also showed a CC50 at 72 h in data set [2] of 287 ± 7.3 µM. Also, in data set [3], the IC50 worked out at 32.9 ± 0.9 µM; the “SIL-F, selectivity index” value turned out to be 8.74; the “SIL-M, selectivity index” value was 6.37. Besides, in data set [4], the half-inhibitory concentration (IC50) turned out to be 38.4 ± 2.1 µM; the “SIT-F, selectivity index” value amounted to 7.48; the “SIT-M, selectivity index” value is recorded as 5.46.
